pKd: −log10 of the molar value. Where two headings read alike, the source gives them in different places.
Columns and labels:
AdmX [1] = target: T1, AdmX (Serratia plymuthica, UniProt P0DV33); test: ITC (also DSF shift of […]°C, in vitro transcription repression); assay type: binding
AdmX [2] = target: T1, AdmX; test: as above; assay type: binding; remark: listed apart in the source

T1 sequence (P0DV33 whole entry): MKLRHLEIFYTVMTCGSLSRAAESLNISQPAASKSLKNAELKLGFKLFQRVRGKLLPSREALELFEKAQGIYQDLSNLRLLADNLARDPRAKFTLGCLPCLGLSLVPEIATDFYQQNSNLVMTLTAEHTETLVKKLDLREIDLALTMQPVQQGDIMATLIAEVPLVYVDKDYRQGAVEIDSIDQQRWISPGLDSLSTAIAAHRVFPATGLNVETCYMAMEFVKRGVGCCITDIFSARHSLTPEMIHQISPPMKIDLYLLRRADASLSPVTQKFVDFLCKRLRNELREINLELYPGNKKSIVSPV

| SMILES | pKd (AdmX [1]) | pKd (AdmX [2]) |
| --- | --- | --- |
| O=C(O)Cc1c[nH]c2ccccc12 [IAA, indole-3-acetic acid] | 4.22 |  |
| O=C(O)C(=O)Cc1c[nH]c2ccccc12 [IPA, indole-3-pyruvic acid] |  | 5.96 |

— article PMC6265452, “An auxin controls bacterial antibiotics production” (Nucleic Acids Research, 2018)
